The results in this text go back to paper PMC12136037, “Type II kinase inhibitors that target Parkinson’s disease–associated LRRK2” (Science Advances, 2025).

Common to all, as to experiment: DSF 100 kinase selectivity screen;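 further: compound tested at 20 µM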
Holding throughout (type): binding

Experiment [1] deals with T1, ~100 representative kinases (Homo sapiens, UniProt P07332).
T1 construct: Recombinant protein kinase domains with a concentration of 2 μM
Conditions: protein FESA; average of three replicates. In a few lines:
(§1)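 Each kinase domain, at 2 μM, is mixed with 20 μM test compound and SYPRO Orange in Hepes (20 mM, pH 7.5) with 500 mM NaCl. Temperature is then raised at 3°C/min and fluorescence-monitored unfolding yields the melting temperature change, ΔTm in degrees Celsius.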

For experiment [2], the target named is T2, ~100 representative kinases (Homo sapiens, UniProt P11362).
T2 construct: Recombinant protein kinase domains with a concentration of 2 μM
T2 sequence (P11362 22-822): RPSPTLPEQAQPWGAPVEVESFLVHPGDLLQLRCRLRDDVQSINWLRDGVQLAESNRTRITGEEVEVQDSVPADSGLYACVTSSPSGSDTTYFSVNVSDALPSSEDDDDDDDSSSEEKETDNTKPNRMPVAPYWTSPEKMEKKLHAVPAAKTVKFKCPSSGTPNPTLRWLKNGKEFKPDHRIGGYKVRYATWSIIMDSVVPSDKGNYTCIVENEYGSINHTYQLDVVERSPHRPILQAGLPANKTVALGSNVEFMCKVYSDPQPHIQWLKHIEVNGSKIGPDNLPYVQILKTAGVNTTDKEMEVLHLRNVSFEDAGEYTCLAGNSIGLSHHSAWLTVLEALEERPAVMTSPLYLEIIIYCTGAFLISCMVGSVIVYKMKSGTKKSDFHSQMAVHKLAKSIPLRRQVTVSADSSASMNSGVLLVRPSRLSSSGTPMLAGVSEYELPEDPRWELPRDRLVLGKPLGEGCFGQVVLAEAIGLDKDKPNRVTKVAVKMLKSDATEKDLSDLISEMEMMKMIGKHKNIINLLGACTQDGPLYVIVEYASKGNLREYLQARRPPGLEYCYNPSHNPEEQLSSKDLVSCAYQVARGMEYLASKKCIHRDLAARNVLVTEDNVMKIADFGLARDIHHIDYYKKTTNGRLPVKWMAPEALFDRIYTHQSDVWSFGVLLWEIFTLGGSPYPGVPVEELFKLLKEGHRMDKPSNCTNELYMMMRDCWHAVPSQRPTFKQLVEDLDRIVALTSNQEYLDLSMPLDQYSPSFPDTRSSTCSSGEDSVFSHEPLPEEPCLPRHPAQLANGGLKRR
The note with it: protein FGFR1; average of three replicates. In a few lines: as §1

Experiment [3] deals with T3, ~100 representative kinases (Homo sapiens, UniProt P12931).
T3 construct: Recombinant protein kinase domains with a concentration of 2 μM
T3 sequence (P12931 whole entry, the tested form may be a part): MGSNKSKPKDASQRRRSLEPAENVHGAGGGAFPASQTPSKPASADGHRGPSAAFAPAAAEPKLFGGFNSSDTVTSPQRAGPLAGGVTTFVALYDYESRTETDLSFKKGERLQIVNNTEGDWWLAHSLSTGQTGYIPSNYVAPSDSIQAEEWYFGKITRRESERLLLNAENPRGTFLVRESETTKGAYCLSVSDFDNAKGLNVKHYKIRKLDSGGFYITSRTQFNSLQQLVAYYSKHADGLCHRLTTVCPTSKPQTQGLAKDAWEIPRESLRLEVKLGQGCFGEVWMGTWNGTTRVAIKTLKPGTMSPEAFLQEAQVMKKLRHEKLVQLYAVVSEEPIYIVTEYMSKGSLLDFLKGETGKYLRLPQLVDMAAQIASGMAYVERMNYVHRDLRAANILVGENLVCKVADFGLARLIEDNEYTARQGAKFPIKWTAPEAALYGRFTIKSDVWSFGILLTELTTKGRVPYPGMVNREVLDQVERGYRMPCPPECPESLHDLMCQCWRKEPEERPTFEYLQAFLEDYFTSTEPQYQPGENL
Conditions: Protein SRC; DSF; average of three replicates. In a few lines: as §1

Experiment [4] addresses T4, ~100 representative kinases (Homo sapiens, UniProt P52564).
T4 construct: Recombinant protein kinase domains with a concentration of 2 μM
T4 sequence (P52564 1-334): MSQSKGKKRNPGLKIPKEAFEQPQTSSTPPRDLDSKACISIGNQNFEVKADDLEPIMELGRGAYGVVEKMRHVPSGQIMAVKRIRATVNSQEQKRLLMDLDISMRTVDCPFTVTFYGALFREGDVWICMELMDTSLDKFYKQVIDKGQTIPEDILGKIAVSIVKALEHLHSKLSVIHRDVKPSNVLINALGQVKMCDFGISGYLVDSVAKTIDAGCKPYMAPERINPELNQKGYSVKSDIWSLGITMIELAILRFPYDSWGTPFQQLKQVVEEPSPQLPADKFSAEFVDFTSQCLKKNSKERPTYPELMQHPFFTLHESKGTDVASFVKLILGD
Conditions: protein MAP2K6; average of three replicates. The method, boiled down:
as §1

Experiment [5] deals with T5, ~100 representative kinases (Homo sapiens, UniProt P54756).
T5 construct: Recombinant protein kinase domains with a concentration of 2 μM
T5 sequence (P54756 25-1037): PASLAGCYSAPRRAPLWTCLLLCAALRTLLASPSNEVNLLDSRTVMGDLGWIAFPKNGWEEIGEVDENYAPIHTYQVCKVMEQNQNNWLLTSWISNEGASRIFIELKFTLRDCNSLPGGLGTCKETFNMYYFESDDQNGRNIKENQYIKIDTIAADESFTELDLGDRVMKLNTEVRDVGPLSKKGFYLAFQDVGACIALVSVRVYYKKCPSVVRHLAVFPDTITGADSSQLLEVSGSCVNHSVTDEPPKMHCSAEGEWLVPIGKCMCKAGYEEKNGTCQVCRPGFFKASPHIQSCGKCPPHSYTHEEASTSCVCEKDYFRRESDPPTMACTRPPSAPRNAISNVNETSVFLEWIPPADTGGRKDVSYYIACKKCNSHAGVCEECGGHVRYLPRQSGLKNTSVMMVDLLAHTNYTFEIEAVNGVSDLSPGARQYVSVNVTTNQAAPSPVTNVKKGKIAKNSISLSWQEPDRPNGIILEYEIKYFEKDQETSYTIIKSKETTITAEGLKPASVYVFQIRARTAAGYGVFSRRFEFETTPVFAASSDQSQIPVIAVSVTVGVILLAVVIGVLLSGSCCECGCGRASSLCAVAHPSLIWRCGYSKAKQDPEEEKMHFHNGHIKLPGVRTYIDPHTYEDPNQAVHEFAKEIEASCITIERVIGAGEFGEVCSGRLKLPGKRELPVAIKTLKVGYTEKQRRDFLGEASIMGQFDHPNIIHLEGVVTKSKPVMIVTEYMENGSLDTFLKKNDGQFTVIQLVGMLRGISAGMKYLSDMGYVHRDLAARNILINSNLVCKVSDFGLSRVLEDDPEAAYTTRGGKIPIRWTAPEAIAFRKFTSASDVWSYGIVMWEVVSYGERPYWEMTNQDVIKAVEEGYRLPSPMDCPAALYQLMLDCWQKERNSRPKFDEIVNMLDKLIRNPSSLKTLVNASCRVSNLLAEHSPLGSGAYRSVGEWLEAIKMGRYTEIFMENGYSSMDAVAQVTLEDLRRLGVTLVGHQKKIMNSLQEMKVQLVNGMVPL
Conditions: Protein EPHA5; average of three replicates. In a few lines: as §1

Experiment [6] deals with T6, ~100 representative kinases (Homo sapiens, UniProt Q00532).
T6 construct: Recombinant protein kinase domains with a concentration of 2 μM
T6 sequence (Q00532 whole entry, the tested form may be a part): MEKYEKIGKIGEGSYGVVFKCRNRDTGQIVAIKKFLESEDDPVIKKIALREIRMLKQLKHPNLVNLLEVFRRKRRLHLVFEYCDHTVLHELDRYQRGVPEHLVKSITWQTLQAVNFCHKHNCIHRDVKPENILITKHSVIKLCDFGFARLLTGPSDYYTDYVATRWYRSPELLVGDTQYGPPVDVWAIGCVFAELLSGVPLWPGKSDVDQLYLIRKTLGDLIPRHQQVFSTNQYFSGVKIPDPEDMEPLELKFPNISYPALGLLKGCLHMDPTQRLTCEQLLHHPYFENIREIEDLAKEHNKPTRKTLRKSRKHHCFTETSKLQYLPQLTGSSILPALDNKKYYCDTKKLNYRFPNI
The note with it: Protein CDKL1; average of three replicates. In a few lines:
as §1

In experiment [7] the target is T7, ~100 representative kinases (Homo sapiens, UniProt Q6PHR2).
T7 construct: Recombinant protein kinase domains with a concentration of 2 μM
T7 sequence (Q6PHR2 1-472): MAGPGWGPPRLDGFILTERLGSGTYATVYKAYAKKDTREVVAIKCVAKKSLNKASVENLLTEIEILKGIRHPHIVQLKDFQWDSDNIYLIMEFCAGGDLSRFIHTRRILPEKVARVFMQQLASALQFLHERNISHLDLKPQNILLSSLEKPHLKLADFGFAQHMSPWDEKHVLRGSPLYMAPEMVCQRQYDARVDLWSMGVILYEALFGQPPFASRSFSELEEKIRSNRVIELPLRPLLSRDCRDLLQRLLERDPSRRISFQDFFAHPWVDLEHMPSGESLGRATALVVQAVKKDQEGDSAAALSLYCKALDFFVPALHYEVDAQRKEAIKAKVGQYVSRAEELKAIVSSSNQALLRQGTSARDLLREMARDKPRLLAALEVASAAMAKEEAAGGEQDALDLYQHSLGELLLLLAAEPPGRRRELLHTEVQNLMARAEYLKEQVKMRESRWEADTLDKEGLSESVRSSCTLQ
The note with it: Protein ULK3; DSF; average of three replicates. In a few lines:
as §1

Experiment [8] has as its target T8, ~100 representative kinases (Homo sapiens, UniProt Q99640).
T8 construct: Recombinant protein kinase domains with a concentration of 2 μM
T8 sequence (Q99640 1-499): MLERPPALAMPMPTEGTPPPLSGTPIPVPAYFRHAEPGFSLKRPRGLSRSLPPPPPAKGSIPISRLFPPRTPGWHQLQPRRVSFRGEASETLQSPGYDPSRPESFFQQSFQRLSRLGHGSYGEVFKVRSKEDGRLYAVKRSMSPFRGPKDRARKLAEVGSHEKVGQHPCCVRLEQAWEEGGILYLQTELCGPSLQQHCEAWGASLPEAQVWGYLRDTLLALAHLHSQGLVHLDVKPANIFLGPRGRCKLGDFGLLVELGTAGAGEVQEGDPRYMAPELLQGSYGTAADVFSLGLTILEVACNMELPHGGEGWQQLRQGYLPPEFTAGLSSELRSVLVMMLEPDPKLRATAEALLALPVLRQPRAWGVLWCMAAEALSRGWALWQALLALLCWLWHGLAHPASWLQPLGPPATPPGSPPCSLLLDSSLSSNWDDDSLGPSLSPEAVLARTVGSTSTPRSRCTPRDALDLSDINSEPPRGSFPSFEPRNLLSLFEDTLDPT
The note with it: protein PKMYT1; average of three replicates. The method, boiled down:
as §1

Experiment [9] concerns the target T9, ~100 representative kinases (Homo sapiens, UniProt Q9UKI8).
T9 construct: Recombinant protein kinase domains with a concentration of 2 μM
T9 sequence (Q9UKI8 1-766): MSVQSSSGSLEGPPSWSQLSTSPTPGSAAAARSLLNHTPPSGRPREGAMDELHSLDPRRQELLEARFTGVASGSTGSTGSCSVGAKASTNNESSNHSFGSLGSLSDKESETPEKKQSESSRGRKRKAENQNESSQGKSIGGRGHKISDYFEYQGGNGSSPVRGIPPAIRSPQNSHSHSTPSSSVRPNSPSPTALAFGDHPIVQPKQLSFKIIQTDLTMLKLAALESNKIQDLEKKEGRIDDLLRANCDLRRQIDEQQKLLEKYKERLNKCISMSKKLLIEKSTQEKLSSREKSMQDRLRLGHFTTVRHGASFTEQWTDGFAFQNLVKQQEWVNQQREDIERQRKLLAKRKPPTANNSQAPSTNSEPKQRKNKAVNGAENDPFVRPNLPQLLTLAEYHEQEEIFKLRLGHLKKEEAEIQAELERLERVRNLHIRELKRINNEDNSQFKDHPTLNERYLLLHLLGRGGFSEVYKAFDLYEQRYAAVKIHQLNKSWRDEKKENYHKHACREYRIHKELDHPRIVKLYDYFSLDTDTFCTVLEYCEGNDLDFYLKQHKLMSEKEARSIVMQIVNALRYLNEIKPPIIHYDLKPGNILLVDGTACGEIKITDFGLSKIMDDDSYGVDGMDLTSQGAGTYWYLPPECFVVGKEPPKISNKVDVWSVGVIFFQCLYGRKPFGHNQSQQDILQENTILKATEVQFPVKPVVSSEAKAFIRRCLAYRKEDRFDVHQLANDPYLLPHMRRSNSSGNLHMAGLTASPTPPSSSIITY
The note with it: Protein TLK1; DSF; average of three replicates. In a few lines: as §1

T1 sequence (P07332 whole entry, the tested form may be a part): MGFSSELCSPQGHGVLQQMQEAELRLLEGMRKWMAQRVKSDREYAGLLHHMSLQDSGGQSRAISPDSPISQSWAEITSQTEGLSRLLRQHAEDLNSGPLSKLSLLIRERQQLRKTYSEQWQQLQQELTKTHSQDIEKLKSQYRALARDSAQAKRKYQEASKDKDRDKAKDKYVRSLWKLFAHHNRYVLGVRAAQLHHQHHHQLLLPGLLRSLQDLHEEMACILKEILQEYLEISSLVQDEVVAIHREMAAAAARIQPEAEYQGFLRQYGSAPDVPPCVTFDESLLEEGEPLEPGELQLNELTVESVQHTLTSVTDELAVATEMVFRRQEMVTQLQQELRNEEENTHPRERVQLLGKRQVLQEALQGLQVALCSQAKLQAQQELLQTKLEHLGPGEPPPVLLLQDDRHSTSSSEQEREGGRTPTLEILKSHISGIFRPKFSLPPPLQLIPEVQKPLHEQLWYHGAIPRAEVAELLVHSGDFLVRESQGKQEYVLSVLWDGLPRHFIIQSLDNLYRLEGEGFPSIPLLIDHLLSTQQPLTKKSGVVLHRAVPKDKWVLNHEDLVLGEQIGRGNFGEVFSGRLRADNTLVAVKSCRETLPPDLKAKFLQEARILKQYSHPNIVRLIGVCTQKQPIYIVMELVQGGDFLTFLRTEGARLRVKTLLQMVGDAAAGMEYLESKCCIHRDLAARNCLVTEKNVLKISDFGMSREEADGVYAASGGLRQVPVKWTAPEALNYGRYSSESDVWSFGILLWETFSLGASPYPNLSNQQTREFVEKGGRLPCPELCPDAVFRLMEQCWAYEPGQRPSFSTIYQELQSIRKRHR

`COc1ccc(NC(=O)C2(C(=O)Nc3cccc(-c4c[nH]c5ncnc(N6CCOCC6)c45)c3)CC2)cc1` [Compound 16]: the dTm in [1] is recorded as 3.37 K; in experiment [2], 0.70 K; in experiment [3], 0.65 K; in experiment [4] it was 0.82 K; in experiment [5] it was -0.30 K; in [6], 1.33 K. Also, the values for the dTm in [7], in [8] and in experiment [9] were 5.26 K, -0.09 K and -1.11 K, respectively.

As to `O=C(Nc1cccc(-c2c[nH]c3ncnc(N4CCOCC4)c23)c1)C1(C(=O)Nc2ccc(F)c(F)c2)CC1` [Compound 17], the dTm in [1] is recorded as 5.87 K; in experiment [2], 1.11 K; in [3], 1.01 K; in [4], 2.36 K; in [5] it was 2.05 K; in experiment [6] it was 2.59 K. Further, the dTm in experiment [7] is 7.52 K; in experiment [8], 0.00857 K; in [9] it was -0.35 K.

Take `O=C(Nc1cccc(-c2c[nH]c3ncnc(N4CCOCC4)c23)c1)C1(C(=O)Nc2ccc(F)c(Cl)c2)CC1` [Compound 18]: the dTm came out at 6.93 K in experiment [1]; 2.20 K in experiment [2]; 1.18 K in experiment [3]; 2.96 K in [4]; 2.50 K in [5]; 3.38 K in experiment [6]. Also, the figures for the dTm in [7], in experiment [8] and in experiment [9] were 9.54 K, -1.54 K and 0.17 K, respectively.

For `O=C(Nc1cccc(-c2c[nH]c3ncnc(N4CCOCC4)c23)c1)C1(C(=O)Nc2ccc(F)c(Br)c2)CC1` [Compound 19], the dTm in [1] is recorded as 6.49 K; in [2] it was 1.26 K; in experiment [3], -0.25 K; in [4], 3.38 K; in [5], 2.70 K; in experiment [6], 4.06 K. The dTm is listed as 5.66 K in experiment [7], -0.61 K in experiment [8] and 2.03 K in experiment [9].

Turning to `Cc1cc(NC(=O)C2(C(=O)Nc3cccc(-c4c[nH]c5ncnc(N6CCOCC6)c45)c3)CC2)ccc1F` [Compound 20], the dTm in experiment [1] stood at 7.60 K; in [2], 2.46 K; in experiment [3] it was 1.91 K; in experiment [4] it was 3.64 K; in experiment [5], 3.44 K; in experiment [6] it was 5.67 K. The dTm in experiment [7] was 10.21 K; in [8], 0.44 K; in [9], -0.17 K.

Regarding `COc1cc(NC(=O)C2(C(=O)Nc3cccc(-c4c[nH]c5ncnc(N6CCOCC6)c45)c3)CC2)ccc1F` [Compound 21], the dTm in experiment [1] came out at 6.34 K; in experiment [2], 1.39 K; in experiment [3] it was 0.91 K; in [4] it was 3.07 K; in [5], 0.44 K; in [6], 3.09 K. Further, the dTm is reported as 8.22 K in experiment [7], -0.64 K in experiment [8] and -0.77 K in [9].

As for `CC(C)(C)c1cccc(NC(=O)C2(C(=O)Nc3cccc(-c4c[nH]c5ncnc(N6CCOCC6)c45)c3)CC2)c1` [Compound 22], the dTm is 7.02 K in [1]; 1.53 K in experiment [2]; -0.0179 K in experiment [3]; 1.77 K in experiment [4]; 2.41 K in [5]; 4.95 K in [6]. The dTm in experiment [7] is 11.44 K; in [8], -2.18 K; in experiment [9], 0.35 K.

With `O=C(Nc1cccc(-c2c[nH]c3ncnc(N4CCOCC4)c23)c1)C1(C(=O)Nc2ccc(F)cc2F)CC1` [Compound 23], the dTm is reported as 4.70 K in [1]; 1.14 K in experiment [2]; 0.45 K in experiment [3]; 1.78 K in experiment [4]; 1.86 K in [5]; 1.97 K in [6]. Besides, the dTm in [7] was 8.50 K; in experiment [8], -0.59 K; in experiment [9] it was -0.64 K.

Turning to `Cc1cc(F)ccc1NC(=O)C1(C(=O)Nc2cccc(-c3c[nH]c4ncnc(N5CCOCC5)c34)c2)CC1` [Compound 24], the dTm in experiment [1] is 4.33 K; in [2], 0.81 K; in experiment [3] it was 0.70 K; in experiment [4] it was 3.14 K; in experiment [5], 0.97 K; in experiment [6], 1.46 K. Further, the dTm in experiment [7] is on record as 7.53 K; in experiment [8], -0.26 K; in experiment [9] it was -0.75 K.

`O=C(Nc1cccc(-c2c[nH]c3ncnc(N4CCOCC4)c23)c1)C1(C(=O)Nc2cc(Br)c(F)cc2F)CC1` [Compound 25]: the dTm in experiment [1] is reported as 3.29 K; in experiment [2], 0.52 K; in [3], -0.23 K; in experiment [4] it was 3.34 K; in experiment [5], 1.57 K; in experiment [6], 1.69 K. Further, the dTm in [7] was 9.25 K; in experiment [8] it was -1.04 K; in experiment [9], 1.57 K.

For the compound `O=C(Nc1cccc(-c2c[nH]c3ncnc(N4CCOCC4)c23)c1)C1(C(=O)Nc2ccc(F)c(Br)c2F)CC1` [Compound 26], the dTm in experiment [1] is 3.48 K; in experiment [2], 0.99 K; in experiment [3], -0.13 K; in [4], 2.03 K; in [5] it was 1.29 K; in [6], 1.85 K. The results for the dTm in experiment [7], in experiment [8] and in experiment [9] were 7.33 K, -0.69 K and 1.63 K, respectively.
